Experimental data as given in US10189863B2, “5,6-dihydro-4H-benzo[b]thieno-[2,3-d]azepine derivatives” (PULMOCIDE LIMITED, priority 2014, dated 2019).

Assays:
[1] = test system: RSV NS-1 gene transcripts; assay: RSV infection in cotton rats: RSV NS-1 gene transcripts in lung (qRT-PCR); assay type: in vivo, Sigmodon hispidus cotton rats; settings: for RSV NS1 gene transcript % inhibition / RSV NS1 gene transcript (/β-actin), Median: intranasal
Description: (§1) RSV Infection in Cotton Rats
(§2) Male Sigmodon hispidus cotton rats between 6 and 8 weeks of age were infected with hRSV/A/Long (ATCC, Manassas, Va.; 10^5 pfu) in a volume of 0.1 mL of sucrose stabilizing media. Test compounds were dissolved in 100% DMSO (at 3.3, 10, 33 and 100 mg/mL), then diluted at 1:10 in isotonic saline to achieve 10% DMSO in all treatments. Formulations were then sonicated to produce suspensions. The resulting suspensions were administered intranasally (50 μL) by pipette 4 hr before infection (on day 0), and then on days 1, 2 and 3 post infection. Four days after RSV challenge, the animals were euthanised and the lungs were removed. The left lobe was used for viral titration via plaque assay and the lingular lobe for RSV/A/Long NS-1 qRT-PCR and cytokine qRT-PCR.
Total RNA was also extracted from homogenized lung tissue (RNeasy purification kit; Qiagen) and a sample (1 μg) was used to prepare cDNA using QuantiTect Reverse Transcription Kit (Qiagen). For real-time PCR reactions (RSV NS-1 and RANTES genes) the QuantiFast SYBR® Green PCR Kit (Qiagen) was used in a final volume of 25 μL, with final primer concentrations of 0.5 μM. Amplifications were performed on a Bio-Rad iCycler for 1 cycle of 95° C. for 3 min, followed by 40 cycles of 95° C. for 10 sec, 60° C. for 10 sec, and 72° C. for 15 sec. Baseline cycles and cycle threshold (Ct) were calculated by the iQ5 software in the PCR Base Line Subtracted Curve Fit mode. The standard curves were developed using serially diluted cDNA sample most enriched in the transcript of interest (e.g., lungs from day 4 post-primary RSV infection). The Ct values were plotted against log10 cDNA dilution factor. These curves were used to convert the Ct values obtained for different samples to relative expression units which were then normalized to the level of β-actin mRNA (“housekeeping gene”) expressed in the corresponding sample. The mRNA levels were expressed as the geometric mean±SEM for all animals in a group.

hRSV/A/Long = assay: RSV infection in cotton rats: virus titre in lung (plaque assay); assay type: in vivo, Sigmodon hispidus cotton rats; settings: intranasal
Description: as §1, §2
The supernatant of lung homogenates were diluted 1:10 and 1:100 in Eagle (E)-MEM. Confluent HEp2 monolayers in 24-well plates were infected in duplicate (50 μL of sample per well) starting with undiluted (neat) samples followed by diluted homogenates. After incubation for 1 hr (37° C./5% CO2) wells were overlaid with 0.75% methylcellulose medium and plates replaced in the 37° C. incubator. After incubation (for 4 days), the overlay was removed, the cells fixed with 0.1% crystal violet stain (for 1 hr) and then rinsed and air-dried. Plaques were counted and viral titers were expressed as plaque forming units per gram (pfu·g^−1) of tissue.

RSV A2 = assay: RSV infection in mice: virus titre in lung (plaque assay); assay type: in vivo, mice (male BALB/C); settings: for Virus titre in lung, Geometric mean / Virus titre in lung, Median: mice, day 4
Description: Non-fasted mice (male BALB/C, 20-30 g) were infected intranasally with RSV A2 or virus diluent (DMEM, 2% FBS, 12.5% sucrose) under isoflurane (5% in O2) anaesthesia. The A2 strain of RSV (50 μL of 1.3×10^6 PFU/mL: final 0.65×10^5 PFU/mouse) was instilled into each nostril in a drop wise fashion alternating between the two until a volume of 50 μL was delivered. Following infection each animal was weighed on a daily basis to monitor changes. Test compounds were dissolved in 100% DMSO (at 20 mg/mL and/or 2 mg/mL), then diluted at 1:10 in isotonic saline to achieve 10% DMSO in all treatments. Formulations were then sonicated to produce a suspension. The suspension was administered intratracheally (20 μL) with a FMJ-250 PennCentury device or intranasally (40 μL) with a pipette on 1 day and 1 hr before infection (day 0), and then on days 1, 2 and 3 post infection. Four days after RSV challenge, the animals were euthanised (by intraperitoneal injection of a pentobarbitone overdose), the trachea cannulated and BALF extracted for total and differential cell counts. Following BALF collection, the right lung was removed from each animal and homogenised in ice-cold Dulbecco's modified Eagles medium (using 10 times the lung weight of DMEM containing 1% BSA and 25% sucrose) for 2×20 second bursts. The homogenate was then transferred into a sterile tube and spun at 4° C. (2000 rpm; for 5 min). The clarified homogenate was transferred to a chilled cryovial, snap frozen and stored at −80° C. The supernatants from lung homogenates were used for Plaque assay.
HEp2 cells were grown in 24-well plates (Corning) for 48 hr prior to infection in DMEM containing 10% FBS until they attained 100% confluency. Lung homogenate was thawed at RT and ten-fold serial dilutions were prepared in serum-free DMEM. The growth medium from HEp2 cells was aspirated and replaced with 300 μL of serially diluted lung homogenate and left to infect (4 hr; 37° C./5% CO2). The infectious media were aspirated and replaced with Plaque Assay Overlay (500 μL; 1% methylcellulose in MEM, 2% FBS, 1% Pen Strep, 0.5 μg/mL amphotericin B), and left for 7 days (37° C./5% CO2). Cells were fixed with ice-cold methanol for 10 min and blocked with 5% powdered milk (Marvel) in 0.05% PBS-tween (blocking buffer) for 1 hr at RT.
Anti-RSV F-protein antibody [2F7] (Abcam: ab43812) was diluted to a 1:100 concentration in blocking buffer and added to cells for 1 hr at RT with shaking. Cells were washed using PBS and then incubated with the secondary antibody (HRP conjugated goat anti-mouse secondary antibody (Dako P044701-2) diluted in 1:400 with blocking buffer) for 1 hr at RT with shaking. The secondary antibody solution was removed and cells were washed with PBS before the metal-enhanced development substrate DAB was prepared in ultra-pure water (according to manufacturer's instructions). Each well received 300 μL of development substrate (sigmaFAST D0426) until plaques were visible. Plaques were counted by eye and confirmed using light microscopy, allowing the calculation of plaque forming units per mL of lung homogenate supernatant.

RANTES gene expression = assay: RSV infection in cotton rats: RANTES gene transcripts in lung (qRT-PCR); assay type: in vivo, Sigmodon hispidus cotton rats
Description: as §1, §2
Total RNA was also extracted from homogenized lung tissue (RNeasy purification kit; Qiagen) and a sample (1 μg) was used to prepare cDNA using QuantiTect Reverse Transcription Kit (Qiagen). For real-time PCR reactions (RSV NS-1 and RANTES genes) the QuantiFast SYBR® Green PCR Kit (Qiagen) was used in a final volume of 25 μL, with final primer concentrations of 0.5 μM. […] Baseline cycles and cycle threshold (Ct) were calculated by the iQ5 software in the PCR Base Line Subtracted Curve Fit mode. […] The mRNA levels were expressed as the geometric mean±SEM for all animals in a group.

[2] = Drug Conc 10 mg/mL, day 4, LOQ 2.3
[3] = intranasal, Drug Conc 0.2 mg/mL
[4] = intranasal, Drug Conc 2 mg/mL, LOQ 1.5
[5] = intratracheal, Drug Conc 0.2 mg/mL, LOQ 1.5

SMILES: Cc1cnc(N2CC3(CCOCC3)C2)c(C(=O)Nc2ccc(C(=O)N3CCc4cc(C(=O)Nc5c(C)cccc5F)sc4-c4ccccc43)cc2)c1 [Example 5, N-(2-Fluoro-6-methylphenyl)-6-(4-(5-methyl-2-(7-oxa-2-azaspiro[3.5]nonan-2-yl)nicotinamido)benzoyl)-5,6-dihydro-4H-benzo[b]thieno[2,3-d]azepine-2-carboxamide]
- Effect on RSV NS-1 gene transcripts (in words) [1]: dose-dependent inhibition
- RSV NS1 gene transcript % inhibition ([1]; Drug Conc 0.33 mg/mL): 55%
- RSV NS1 gene transcript (/β-actin), Median ([1]; Drug Conc 0.33 mg/mL): 2.0 /β-actin
- RSV NS1 gene transcript % inhibition ([1]; Drug Conc 1.0 mg/mL): 64%
- RSV NS1 gene transcript (/β-actin), Median ([1]; Drug Conc 1.0 mg/mL): 1.6 /β-actin
- RSV NS1 gene transcript % inhibition ([1]; Drug Conc 3.3 mg/mL): 77%
- RSV NS1 gene transcript (/β-actin), Median ([1]; Drug Conc 3.3 mg/mL): 1.0 /β-actin
- RSV NS1 gene transcript % inhibition ([1]; Drug Conc 10 mg/mL): 77%
- RSV NS1 gene transcript (/β-actin), Median ([1]; Drug Conc 10 mg/mL): 1.0 /β-actin
- Virus titre in lung, Geometric mean (hRSV/A/Long; Drug Conc 0.33 mg/mL, day 4): 4.7 log, PFU/lung
- Virus titre in lung, Median (hRSV/A/Long; Drug Conc 0.33 mg/mL, day 4): 4.7 log, PFU/lung
- Virus titre in lung, Median (hRSV/A/Long; Drug Conc 1.0 mg/mL, day 4): 4.5 log, PFU/lung
- Virus titre in lung, Median (hRSV/A/Long; Drug Conc 3.3 mg/mL, day 4, LOQ 2.3): <2.3^2 log, PFU/lung
- Virus titre in lung, Geometric mean (hRSV/A/Long; [2]): <2.3^2 log, PFU/lung
- Virus titre in lung, Median (hRSV/A/Long; [2]): <2.3^2 log, PFU/lung
- Effect on virus titre in the lungs (in words) (RSV A2; RSV A2 infected mice): completely inhibited virus titre
- Virus titre in lung, Geometric mean (RSV A2; [3]): 2.4 log PFU/lung
- Virus titre in lung, Median (RSV A2; [3]): 2.5 log PFU/lung
- Virus titre in lung, Geometric mean (RSV A2; [4]): <1.5^2 log PFU/lung
- Virus titre in lung, Median (RSV A2; [4]): <1.5^2 log PFU/lung
- Virus titre in lung, Geometric mean (RSV A2; [5]): <1.5^2 log PFU/lung
- Virus titre in lung, Median (RSV A2; [5]): <1.5^2 log PFU/lung
- Effect on RANTES transcripts in lung (in words) (RANTES gene expression): dose-dependent inhibition
